Source: PMC11062922 (Nature Chemical Biology, 2023)
Where two headings read alike, the source gives them in different places.

How the values were obtained:
468 kinases = system: 468 kinases; parameters: KINOMEScan: unit not given here; settings: cited from earlier work; for KINOMEScan: published data
MOB1A = target: T1, MOB1A (Homo sapiens, UniProt Q9H8S9); assay: Kinobeads full dose-response competition binding: MOB1A; settings: Gene Name MOB1A
T1 construct: to maximize the representation of endogenous proteins; endogenous in cells
T1 sequence (Q9H8S9 2-216 limits assumed): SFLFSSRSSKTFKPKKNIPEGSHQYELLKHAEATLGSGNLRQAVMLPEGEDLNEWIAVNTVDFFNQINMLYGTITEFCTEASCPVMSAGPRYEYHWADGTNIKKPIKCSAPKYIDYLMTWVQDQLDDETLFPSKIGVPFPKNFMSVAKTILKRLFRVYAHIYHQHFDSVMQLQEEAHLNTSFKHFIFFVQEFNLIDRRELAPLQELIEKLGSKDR
T1 sequence (O95835 1-1130 partner): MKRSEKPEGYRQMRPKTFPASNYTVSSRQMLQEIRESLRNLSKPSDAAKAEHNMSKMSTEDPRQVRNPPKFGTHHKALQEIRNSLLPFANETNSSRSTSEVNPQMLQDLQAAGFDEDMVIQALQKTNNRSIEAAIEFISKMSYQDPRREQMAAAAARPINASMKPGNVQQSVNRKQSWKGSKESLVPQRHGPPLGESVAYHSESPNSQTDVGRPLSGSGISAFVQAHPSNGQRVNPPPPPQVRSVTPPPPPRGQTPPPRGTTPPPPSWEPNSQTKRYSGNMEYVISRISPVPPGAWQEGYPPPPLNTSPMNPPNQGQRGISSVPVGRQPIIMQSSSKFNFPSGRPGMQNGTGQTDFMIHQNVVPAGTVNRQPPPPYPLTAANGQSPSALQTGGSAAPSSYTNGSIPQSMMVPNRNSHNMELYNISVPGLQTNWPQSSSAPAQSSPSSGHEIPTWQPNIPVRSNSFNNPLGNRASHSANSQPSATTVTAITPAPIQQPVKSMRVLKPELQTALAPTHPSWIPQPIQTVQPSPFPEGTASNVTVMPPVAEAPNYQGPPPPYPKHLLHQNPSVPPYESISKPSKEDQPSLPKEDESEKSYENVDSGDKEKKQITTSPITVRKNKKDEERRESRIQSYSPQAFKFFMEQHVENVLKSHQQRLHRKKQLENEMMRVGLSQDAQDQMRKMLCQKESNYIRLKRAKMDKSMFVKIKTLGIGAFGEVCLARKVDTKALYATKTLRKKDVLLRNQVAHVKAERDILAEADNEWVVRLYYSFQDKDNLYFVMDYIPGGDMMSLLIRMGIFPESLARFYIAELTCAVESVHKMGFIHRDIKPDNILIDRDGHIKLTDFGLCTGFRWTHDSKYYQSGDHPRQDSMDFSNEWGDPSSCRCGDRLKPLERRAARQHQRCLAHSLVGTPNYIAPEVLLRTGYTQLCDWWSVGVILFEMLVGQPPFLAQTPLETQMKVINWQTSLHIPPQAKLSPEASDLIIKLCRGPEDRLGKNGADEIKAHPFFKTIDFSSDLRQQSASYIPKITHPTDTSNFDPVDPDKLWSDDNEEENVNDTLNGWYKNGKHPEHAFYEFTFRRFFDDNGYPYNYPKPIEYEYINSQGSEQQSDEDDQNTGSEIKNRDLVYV

FLT4 = target: T2, FLT4 (Homo sapiens, UniProt P35916); assay: Kinobeads two-dose competition binding: FLT4; settings: read-out: Lestaurtinib Drugmatrix value, Gene Name FLT4
T2 construct: endogenous in cells

MAPK14 = target: T3, MAPK14 (Homo sapiens, UniProt Q16539); assay: Kinobeads full dose-response competition binding: MAPK14; settings: Gene Name MAPK14
T3 construct: endogenous in cells

RIPK3 = target: T4, RIPK3 (Homo sapiens, UniProt Q9Y572); assay: Kinobeads full dose-response competition binding: RIPK3; settings: Gene Name RIPK3
T4 construct: endogenous in cells

[1] = EC50 with Correction, doses in nM, read-out: apparent Kd
[2] = eight-dose curve fit, doses in nM

T4 sequence (Q9Y572 whole entry): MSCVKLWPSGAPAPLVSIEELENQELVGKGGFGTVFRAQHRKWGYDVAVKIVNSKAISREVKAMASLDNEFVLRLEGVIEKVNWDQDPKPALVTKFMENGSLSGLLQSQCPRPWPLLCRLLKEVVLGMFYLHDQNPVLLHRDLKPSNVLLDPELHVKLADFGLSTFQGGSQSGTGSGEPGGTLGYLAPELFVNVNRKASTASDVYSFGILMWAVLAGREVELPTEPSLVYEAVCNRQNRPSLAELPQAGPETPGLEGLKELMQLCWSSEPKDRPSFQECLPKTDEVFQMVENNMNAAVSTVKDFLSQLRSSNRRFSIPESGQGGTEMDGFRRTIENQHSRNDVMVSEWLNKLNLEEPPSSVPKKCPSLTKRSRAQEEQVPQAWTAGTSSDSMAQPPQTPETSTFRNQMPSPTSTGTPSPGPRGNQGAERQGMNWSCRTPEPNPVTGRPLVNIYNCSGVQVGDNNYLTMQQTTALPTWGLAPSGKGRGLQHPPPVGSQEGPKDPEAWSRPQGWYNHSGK
T3 sequence (Q16539 whole entry): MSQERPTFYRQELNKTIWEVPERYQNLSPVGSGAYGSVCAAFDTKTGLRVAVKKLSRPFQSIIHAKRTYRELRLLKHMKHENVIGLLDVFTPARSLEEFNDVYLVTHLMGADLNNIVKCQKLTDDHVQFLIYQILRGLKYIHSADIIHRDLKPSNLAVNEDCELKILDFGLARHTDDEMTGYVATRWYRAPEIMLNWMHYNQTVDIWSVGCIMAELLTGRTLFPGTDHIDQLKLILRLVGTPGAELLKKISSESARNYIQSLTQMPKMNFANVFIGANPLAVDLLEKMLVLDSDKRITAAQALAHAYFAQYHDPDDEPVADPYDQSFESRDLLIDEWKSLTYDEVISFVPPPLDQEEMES
T2 sequence (P35916 25-1363): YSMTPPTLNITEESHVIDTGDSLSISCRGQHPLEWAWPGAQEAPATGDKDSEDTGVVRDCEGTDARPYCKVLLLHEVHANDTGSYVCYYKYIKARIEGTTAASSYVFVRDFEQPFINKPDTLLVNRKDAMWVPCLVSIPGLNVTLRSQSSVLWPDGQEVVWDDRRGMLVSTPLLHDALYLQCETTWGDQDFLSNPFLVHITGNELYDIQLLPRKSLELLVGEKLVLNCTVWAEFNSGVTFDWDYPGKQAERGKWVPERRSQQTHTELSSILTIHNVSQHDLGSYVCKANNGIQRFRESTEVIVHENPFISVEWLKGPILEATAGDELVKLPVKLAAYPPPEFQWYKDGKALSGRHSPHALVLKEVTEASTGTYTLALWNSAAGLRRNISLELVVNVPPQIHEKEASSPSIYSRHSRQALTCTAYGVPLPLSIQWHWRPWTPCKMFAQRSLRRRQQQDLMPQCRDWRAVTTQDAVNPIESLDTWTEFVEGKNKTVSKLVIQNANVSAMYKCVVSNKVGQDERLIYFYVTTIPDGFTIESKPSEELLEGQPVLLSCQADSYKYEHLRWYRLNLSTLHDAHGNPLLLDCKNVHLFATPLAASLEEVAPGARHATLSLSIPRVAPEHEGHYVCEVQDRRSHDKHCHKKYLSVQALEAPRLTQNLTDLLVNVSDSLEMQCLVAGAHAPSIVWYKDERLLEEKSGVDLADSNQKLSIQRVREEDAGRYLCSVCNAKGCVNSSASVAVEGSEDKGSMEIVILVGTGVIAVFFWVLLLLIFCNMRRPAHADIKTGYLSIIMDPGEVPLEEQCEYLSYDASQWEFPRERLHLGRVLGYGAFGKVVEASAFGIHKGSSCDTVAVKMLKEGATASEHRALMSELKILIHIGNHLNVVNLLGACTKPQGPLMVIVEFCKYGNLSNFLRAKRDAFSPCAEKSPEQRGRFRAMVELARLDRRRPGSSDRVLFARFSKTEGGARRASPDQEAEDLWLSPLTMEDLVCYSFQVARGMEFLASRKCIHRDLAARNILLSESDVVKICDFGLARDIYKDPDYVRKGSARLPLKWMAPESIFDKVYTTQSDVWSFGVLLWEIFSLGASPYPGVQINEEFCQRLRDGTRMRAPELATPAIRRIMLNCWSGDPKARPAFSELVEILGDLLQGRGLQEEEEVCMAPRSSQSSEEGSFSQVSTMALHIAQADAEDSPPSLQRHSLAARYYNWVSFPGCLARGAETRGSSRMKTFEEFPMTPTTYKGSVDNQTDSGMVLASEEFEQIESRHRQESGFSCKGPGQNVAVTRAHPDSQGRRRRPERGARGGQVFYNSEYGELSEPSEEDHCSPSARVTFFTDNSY

In the case of `COc1cc(Nc2ncc3c(C)nc(-c4cc5ccccc5[nH]4)n3n2)cc(OC)c1OC` [GW869516X], the “number of kinases with more than 70% inhibition of binding” value (468 kinases; broad KINOMEscan assay covering 468 kinases, ref a previous study) is listed as 33, the KINOMEScan (468 kinases; kinase AMPK-alpha1) is listed as 89 and the KINOMEScan (468 kinases; kinase AMPK-alpha2) is listed as 61. The KINOMEScan (468 kinases; kinase BLK) was 60, the KINOMEScan (468 kinases; kinase CIT) was 100 and the KINOMEScan (468 kinases; kinase CLK1) was 88. For the same compound, the KINOMEScan (468 kinases; kinase CLK2) was 75, the KINOMEScan (468 kinases; kinase CSNK2A1) was 96.4 and the KINOMEScan (468 kinases; kinase CSNK2A2) was 99.7. For the same compound, the KINOMEScan (468 kinases; kinase DDR1) was 52, the KINOMEScan (468 kinases; kinase DDR2) was 52 and the KINOMEScan (468 kinases; kinase DYRK1A) was 85. For the same compound, the KINOMEScan (468 kinases; kinase DYRK1B) was 81, the KINOMEScan (468 kinases; kinase EPHB1) was 58 and the KINOMEScan (468 kinases; kinase FLT3-autoinhibited) was 75. For the same compound, the KINOMEScan (468 kinases; kinase FLT3) was 96.3, the KINOMEScan (468 kinases; kinase GCN2(Kin.Dom.2,S808G)) was 88 and the KINOMEScan (468 kinases; kinase HIPK1) was 79. The KINOMEScan (468 kinases; kinase INSRR) was 53, the KINOMEScan (468 kinases; kinase JAK1(JH2domain-pseudokinase)) was 98.5 and the KINOMEScan (468 kinases; kinase JAK2(JH1domain-catalytic)) was 54. For the same compound, the KINOMEScan (468 kinases; kinase KIT) was 72, the KINOMEScan (468 kinases; kinase LCK) was 71 and the KINOMEScan (468 kinases; kinase MAP3K4) was 52. For the same compound, the KINOMEScan (468 kinases; kinase MEK5) was 78, the KINOMEScan (468 kinases; kinase MERTK) was 56 and the KINOMEScan (468 kinases; kinase MLK1) was 93.8. For the same compound, the KINOMEScan (468 kinases; kinase MLK2) was 89, the KINOMEScan (468 kinases; kinase MLK3) was 87 and the KINOMEScan (468 kinases; kinase NEK2) was 70. The KINOMEScan (468 kinases; kinase NEK3) was 89, the KINOMEScan (468 kinases; kinase NEK5) was 99 and the KINOMEScan (468 kinases; kinase NEK6) was 99.6. For the same compound, the KINOMEScan (468 kinases; kinase NEK7) was 99.7, the KINOMEScan (468 kinases; kinase NEK9) was 90 and the KINOMEScan (468 kinases; kinase NEK11) was 86. For the same compound, the KINOMEScan (468 kinases; kinase PAK3) was 69, the KINOMEScan (468 kinases; kinase PIP5K1C) was 89 and the KINOMEScan (468 kinases; kinase PIP5K2C) was 90.3. For the same compound, the KINOMEScan (468 kinases; kinase PKAC-beta) was 51, the KINOMEScan (468 kinases; kinase RSK1(Kin.Dom.1-N-terminal)) was 91.7 and the KINOMEScan (468 kinases; kinase RSK3(Kin.Dom.1-N-terminal)) was 66. The KINOMEScan (468 kinases; kinase SLK) was 63, the KINOMEScan (468 kinases; kinase SRC) was 90.1 and the KINOMEScan (468 kinases; kinase STK16) was 86. The KINOMEScan (468 kinases; kinase SYK) was 53, the KINOMEScan (468 kinases; kinase TBK1) was 58 and the KINOMEScan (468 kinases; kinase TYK2(JH2domain-pseudokinase)) was 82. The KINOMEScan (468 kinases; kinase ULK2) was 51 and the KINOMEScan (468 kinases; kinase WEE2) was 85.

In the case of `CCn1c(-c2nonc2N)nc2c(C#CC(C)(C)O)nc(OCCN)cc21` [GSK902056A], the “Relative Intensity 0.3nM” value (MOB1A; 0.3nM compound, DMSO = 1) is reported as 1.163, the “Relative Intensity 1nM” value (MOB1A; 1nM compound, DMSO = 1) is reported as 0.99 and the “Relative Intensity 3nM” value (MOB1A; 3nM compound, DMSO = 1) is reported as 1.359. For the same compound, the “Relative Intensity 10nM” value (MOB1A; 10nM compound, DMSO = 1) was 0.9582, the “Relative Intensity 30nM” value (MOB1A; 30nM compound, DMSO = 1) was 0.9019 and the “Relative Intensity 100nM” value (MOB1A; 100nM compound, DMSO = 1) was 0.7347. For the same compound, the “Relative Intensity 300nM” value (MOB1A; 300nM compound, DMSO = 1) was 0.3297, the “Relative Intensity 1000nM” value (MOB1A; 1000nM compound, DMSO = 1) was 0 and the Kd (MOB1A; [1]) was 223 nM. It also gave an EC50 (MOB1A; [2]) of 223 nM.

Compound `C[C@]12O[C@H](C[C@]1(O)CO)n1c3ccccc3c3c4c(c5c6ccccc6n2c5c31)CNC4=O` [Lestaurtinib] has a potency estimated from few doses (FLT4) of 396 nM.

With `NCc1ccc(-c2nc(-c3ccncc3)c(-c3ccc(Cl)c(O)c3)[nH]2)cc1` [SB-476429-A] the “Relative Intensity 0.3nM” value (MAPK14; 0.3nM compound, DMSO = 1) was 1.121, the “Relative Intensity 1nM” value (MAPK14; 1nM compound, DMSO = 1) was 0.9468 and the “Relative Intensity 3nM” value (MAPK14; 3nM compound, DMSO = 1) was 1.026. The “Relative Intensity 10nM” value (MAPK14; 10nM compound, DMSO = 1) was 0.8638, the “Relative Intensity 30nM” value (MAPK14; 30nM compound, DMSO = 1) was 0.6876 and the “Relative Intensity 100nM” value (MAPK14; 100nM compound, DMSO = 1) was 0.6751. For the same compound, the “Relative Intensity 300nM” value (MAPK14; 300nM compound, DMSO = 1) was 0.325, the “Relative Intensity 1000nM” value (MAPK14; 1000nM compound, DMSO = 1) was 0.2 and the Kd (MAPK14; [1]) was 174 nM. For the same compound, the EC50 (MAPK14; [2]) was 174 nM, the “Relative Intensity 0.3nM” value (RIPK3; 0.3nM compound, DMSO = 1) was 1.0435 and the “Relative Intensity 1nM” value (RIPK3; 1nM compound, DMSO = 1) was 1.078. For the same compound, the “Relative Intensity 3nM” value (RIPK3; 3nM compound, DMSO = 1) was 1.023, the “Relative Intensity 10nM” value (RIPK3; 10nM compound, DMSO = 1) was 0.8405 and the “Relative Intensity 30nM” value (RIPK3; 30nM compound, DMSO = 1) was 0.9631. The “Relative Intensity 100nM” value (RIPK3; 100nM compound, DMSO = 1) was 1.023, the “Relative Intensity 300nM” value (RIPK3; 300nM compound, DMSO = 1) was 0.7216 and the “Relative Intensity 1000nM” value (RIPK3; 1000nM compound, DMSO = 1) was 0.4701. The Kd (RIPK3; [1]) was 289 nM and the EC50 (RIPK3; [2]) was 296 nM.
